7 molecules from ChEMBL document CHEMBL3865781, “Recent advances in the discovery and development of antibacterial agents targeting the cell-division protein FtsZ” (Bioorg Med Chem, 2016) can be followed below.

≈ marks a conversion by molar mass, not a printed value.

Data set [1] concerns Mycobacterium tuberculosis. Briefly: Antibacterial activity against Mycobacterium tuberculosis TN587 clinical isolates measured every 24 hrs for 7 days by MABA assay. Format: functional.
Data set [2] concerns Mycobacterium tuberculosis. In words: Antibacterial activity against Mycobacterium tuberculosis W210 clinical isolates measured every 24 hrs for 7 days by MABA assay. It counts as functional. Background: Resazurin is reduced to fluorescent resorufin, in cell work by metabolically active cells.
Data set [3] concerns Mycobacterium tuberculosis. In words: Antibacterial activity against Mycobacterium tuberculosis NHN382 clinical isolates measured every 24 hrs for 7 days by MABA assay. It counts as functional.
Data set [4] relates to Mycobacterium tuberculosis. Briefly: In vivo antibacterial activity against Mycobacterium tuberculosis str. Erdman infected in C57BL/6 mouse assessed as reduction in bacterial load in spleens at 50 mg/kg, ip bid on day 5 to 14 post infection measured on day 15 post infection. It counts as functional, Erdman = ATCC 35801.
The test system of data set [5] is Mycobacterium tuberculosis. In words: Antibacterial activity against Mycobacterium tuberculosis H37Rv measured every 24 hrs for 7 days by MABA assay. It counts as functional.
The test system of data set [6] is Bacillus subtilis. In words: Antibacterial activity against Bacillus subtilis. Format: functional.
For data set [7], the system named is Staphylococcus aureus. In words: Antibacterial activity against multi-drug resistant Staphylococcus aureus. It counts as functional.
The nature of data set [8]: Half life in iv dosed BALB/c mouse administered 1 hr after ABT addition by LC-MS/MS analysis. It counts as ADME, organism-based. The note with it: in vivo.
Data set [9] in a line: Toxicity in mouse infected with Staphylococcus aureus assessed as survival at 30 mg/kg, iv or po. Format: organism-based. The note with it: in vivo.
Data set [10] relates to Staphylococcus aureus. In words: Antibacterial activity against methicillin-resistant Staphylococcus aureus. It counts as functional.
In data set [11] the test system is Mycobacterium tuberculosis. In words: In vivo antibacterial activity against Mycobacterium tuberculosis H37Rv infected in C57BL/6 GKO-mouse assessed as reduction in bacterial load in spleens at 150 mg/kg, ip qd on day 12 post infection for 9 consecutive days. Format: functional.
Data set [12] concerns Mycobacterium tuberculosis. Briefly: In vivo antibacterial activity against Mycobacterium tuberculosis H37Rv infected in C57BL/6 GKO-mouse assessed as reduction in bacterial load in lungs at 150 mg/kg, ip qd on day 12 post infection for 9 consecutive days. Format: functional.
For data set [13], the system named is Staphylococcus aureus. Briefly: In vivo antibacterial activity against methicillin-resistant Staphylococcus aureus ATCC 33591 infected in ICR(CD-1) mouse thigh infection model assessed as reduction in colony forming units in thigh muscle at 120 to 160 mg/kg, po measured 24 hrs post infection. It counts as functional.
Data set [14] deals with Bacillus subtilis. In words: Inhibition of Bacillus subtilis FtsZ polymerization expressed in Escherichia coli BL21(DE3) pLysS at 10 uM preincubated for 15 mins followed by GTP addition by spectrofluorometric analysis relative to control.
Data set [15] has as its system Klebsiella pneumoniae. In words: Antibacterial activity against Klebsiella pneumoniae ATCC BAA-1144 after 18 hrs by broth microdilution method. The note with it: ATCC BAA-1144, 18 h. It counts as functional.
Data set [16] relates to Enterococcus faecalis. Briefly: Antimicrobial activity against vancomycin-sensitive Enterococcus faecalis after 18 hrs by broth microdilution method. Format: functional.
Data set [17] has as its system Staphylococcus aureus. Briefly: Antibacterial activity against methicillin-sensitive Staphylococcus aureus after 18 hrs by broth microdilution method. Format: functional. For orientation: Broth dilution looks for growth in wells or tubes with falling amounts of substance.
Data set [18] deals with Staphylococcus aureus. In words: Antibacterial activity against methicillin-resistant Staphylococcus aureus ATCC BAA-41 after 18 hrs by broth microdilution method. Format: functional. The note with it: ATCC BAA-41, 18 h.
Data set [19] relates to Bacillus subtilis. In words: Inhibition of Bacillus subtilis FtsZ GTPase activity expressed in Escherichia coli BL21(DE3) pLysS at 24 uM preincubated for 15 mins followed by GTP addition after 10 mins by malachite green ammonium molybdate assay relative to control.
The test system of data set [20] is Escherichia coli. Briefly: Antibacterial activity against Escherichia coli ATCC 25922 after 18 hrs by broth microdilution method. Format: functional. The note with it: ATCC 25922, 18 h.
The test system of data set [21] is Bacillus subtilis. Briefly: Inhibition of Bacillus subtilis FtsZ polymerization expressed in Escherichia coli BL21(DE3) pLysS at 2 uM preincubated for 15 mins followed by GTP addition by spectrofluorometric analysis relative to control.
Data set [22] relates to Bacillus subtilis. Briefly: Inhibition of Bacillus subtilis FtsZ polymerization expressed in Escherichia coli BL21(DE3) pLysS at 5 uM preincubated for 15 mins followed by GTP addition by spectrofluorometric analysis relative to control.
Data set [23] deals with Enterococcus faecalis. In words: Antimicrobial activity against vancomycin-resistant Enterococcus faecalis after 18 hrs by broth microdilution method. Format: functional.
The test system of data set [24] is Bacillus subtilis. Briefly: Antibacterial activity against Bacillus subtilis 168 after 12 hrs by agar dilution assay. The note with it: subsp. subtilis str. 168, 12 h. It counts as functional. In general terms: In agar dilution, organisms are placed on agar that contains the substance at set levels.
Data set [25] concerns Mycolicibacterium smegmatis. In words: Antibacterial activity against Mycobacterium smegmatis after 12 hrs by agar dilution assay. Format: functional.
The test system of data set [26] is Escherichia coli. In words: Antibacterial activity against Escherichia coli K12 MG1655 after 4 hrs. The note with it: K-12 substr. MG1655, 4 h. Format: functional.
In data set [27] the test system is Bacillus subtilis. Briefly: Antibacterial activity against Bacillus subtilis 168 harboring trpC2 after 4 hrs. It counts as functional. The note with it: subsp. subtilis str. 168, 4 h.

For orientation: MIC99 means the lowest concentration that inhibits either 99% of growth or 99% of the strains tested, depending on the study. Lower therefore signals greater potency. `CN(C)c1cc2[nH]c(C3CCCCC3)nc2cc1NC(=O)c1ccc(OC(F)(F)F)cc1`: the MIC99 in data set [1], in data set [2], in [3] and in data set [5] was 0.16 µg/mL (≈ 0.358 µM) each time. For the same molecule, the Activity in [4] is 2.68 log10CFU.
As a reminder, the MIC is the least concentration at which growth counts as inhibited. The term half-life denotes the time in which the quantity being followed falls by half. `NC(=O)c1c(F)ccc(OCc2nc3cc(Cl)cnc3s2)c1F`: the MIC in [6], in data set [7] and in data set [10] was 0.5 to 1 µg/mL (≈ 1.41 to 2.81 µM) each time. In data set [8], this molecule showed a half-life of 33.6 min. Besides, in data set [9], the survival worked out at 100%.
Take `CCCCOC(=O)Nc1cc2nc(C3CCCCC3)[nH]c2cc1N(CC)CC`: the Activity was 0.7 log10CFU in data set [11] and 0.41 log10CFU in data set [12]. For the same molecule, the MIC99 in data set [1] turned out to be 1.25 µg/mL (≈ 3.23 µM); in data set [2], 1.25 µg/mL (≈ 3.23 µM); in data set [3] it was 1.25 µg/mL (≈ 3.23 µM); in data set [5] it was 0.63 µg/mL (≈ 1.63 µM).
For the molecule `CN1CCC(C(=O)NC(=O)c2c(F)ccc(OCc3nc4cc(C(F)(F)F)cnc4s3)c2F)CC1`, the Activity in data set [13] is on record as 2 log10CFU.
One may read the inhibition as the percentage by which the read-out fell short of the control. A lower inhibition goes with a response near the control. For the molecule `CC1=CC(=O)c2c(O)cccc2C1=O` [PLUMBAGIN], the inhibition in data set [14] is 45%; in [19] it was 58%; in data set [21] it was 26%; in data set [22] it was 33%. The MIC lay within 32 to 128 µg/mL (≈ 170 to 680 µM) in data set [15]; 4 to 16 µg/mL (≈ 21.3 to 85 µM) in [16]; 2 to 8 µg/mL (≈ 10.6 to 42.5 µM) in [17]; 2 to 8 µg/mL (≈ 10.6 to 42.5 µM) in data set [18]; 32 to 128 µg/mL (≈ 170 to 680 µM) in data set [20]; 4 to 16 µg/mL (≈ 21.3 to 85 µM) in data set [23].
As for `CC(=O)O[C@@]12CO[C@@H]1C[C@H](O)[C@@]1(C)C(=O)C(=O)C3=C(C)[C@@H](OC(=O)/C=C/c4ccc5ccccc5c4)C[C@@](O)([C@@H](OC(=O)c4ccccc4)[C@H]21)C3(C)C`, the MIC came out at 30 µM (≈ 21.7 µg/mL) in data set [24] and 60 µM (≈ 43.4 µg/mL) in data set [25].
The IC50 is the concentration that gives 50% inhibition. A lower IC50 goes with inhibition by little substance. As for `COc1cc(/C=C/C(=O)CC(=O)/C=C/c2ccc(O)c(OC)c2)ccc1O` [CURCUMIN], the MIC in data set [15] was 32 to 128 µg/mL (≈ 86.9 to 347 µM); in data set [16], 4 to 16 µg/mL (≈ 10.9 to 43.4 µM); in data set [17], 2 to 8 µg/mL (≈ 5.43 to 21.7 µM); in data set [18], 2 to 8 µg/mL (≈ 5.43 to 21.7 µM); in [20], 32 to 128 µg/mL (≈ 86.9 to 347 µM). Moreover, the values for the IC50 in [26] and in data set [27] were 58 µM and 17 µM, respectively.
